This note sets out measurements from patent US7799800B2, “Lipid-modified immune response modifiers” (3M Innovative Properties Company, priority 2003, dated 2010).

Regarding `CCCCCCCCCCCC(=O)NCCOCCn1c(CCOC)nc2c(N)nc3ccccc3c21` [Example 3, N-(2-{2-[4-amino-2-(2-methoxyethyl)-1H-imidazo[4,5-c]quinolin-1-yl]ethoxy}ethyl)dodecanamide], the melting point (commonly the temperature of the solid-liquid transition) was in the range of 80 to 83 °C.
As for `CCCCCCCCCCCCCCCCCC(=O)NCCOCCn1c(CCOC)nc2c(N)nc3ccccc3c21` [Example 2, N-(2-{2-[4-amino-2-(2-methoxyethyl)-1H-imidazo[4,5-c]quinolin-1-yl]ethoxy}ethyl)octadecanamide], the figure is 80 to 83 °C.
As for `CCCCCCCCCCCCCC(=O)NCCOCCn1c(CCOC)nc2c(N)nc3ccccc3c21` [Example 4, N-(2-{2-[4-amino-2-(2-methoxyethyl)-1H-imidazo[4,5-c]quinolin-1-yl]ethoxy}ethyl)tetradecanamide], the figure is 85 to 87 °C.
